Measured values from BigSolDB 2.1.

CC(CO)(CO)C(=O)O
solubility (mole fraction)
Conditions | 288.15 K | 293.15 K | 298.15 K | 303.15 K | 308.15 K | 313.15 K | 318.15 K | 323.15 K | 328.15 K
in DMF | 0.163 | 0.171 | 0.177 | 0.184 | 0.191 | 0.201 | 0.21 | 0.218 | 0.225
in acetone | 0.00255 | 0.00292 | 0.00366 | 0.004 | 0.00477 | 0.00564 | 0.00645 | 0.00753 | 0.00853
in ethanol | 0.0117 | 0.0135 | 0.0155 | 0.0186 | 0.0214 | 0.0254 | 0.0293 | 0.0341 | 0.0386
in ethyl acetate | 0.00042 | 0.00048 | 0.00056 | 0.00072 | 0.00096 | 0.00131 | 0.00163 | 0.00202 | 0.00253
in isopropanol | 0.00755 | 0.00901 | 0.0114 | 0.0131 | 0.0164 | 0.0185 | 0.0209 | 0.0252 | 0.0306
in methanol | 0.0223 | 0.0254 | 0.0288 | 0.0334 | 0.038 | 0.0436 | 0.0498 | 0.0566 | 0.0635
in methyl acetate | 0.00052 | 0.00072 | 0.00094 | 0.00121 | 0.00149 | 0.00186 | 0.00234 | 0.00301 | 0.0041
in n-butanol | 0.00666 | 0.00759 | 0.00911 | 0.0108 | 0.0132 | 0.0155 | 0.0181 | 0.0214 | 0.0257
in n-butyl acetate | 0.00033 | 0.00038 | 0.00046 | 0.00053 | 0.00063 | 0.00075 | 0.00087 | 0.00098 | 0.00113
in n-propanol | 0.00677 | 0.00775 | 0.00939 | 0.0111 | 0.0136 | 0.0161 | 0.0189 | 0.0226 | 0.027
in sec-butanol | 0.0068 | 0.00792 | 0.00935 | 0.0112 | 0.014 | 0.0165 | 0.0191 | 0.0232 | 0.0277
in water | 0.0133 | 0.0152 | 0.0169 | 0.0199 | 0.0231 | 0.0265 | 0.0305 | 0.0349 | 0.0414
